Key:
Assay type in all cases: biochemical
human FAK = biological target: T1, human FAK (Homo sapiens, UniProt Q05397); assay: FAK autophosphorylation inhibition, time resolved fluorescence (HTRF) assay; conditions: 10 μM (values without asterisk); read-out: FAK % inhib at 10 μM
T1 construct: The complete cDNA of human FAK; made in house; host or cells: baculovirus expression system (vector pFastBac HTc)
Description: The inhibitory activity of the compounds on FAK is determined by measuring the inhibition of the autophosphorylation of the enzyme using a time resolved fluorescence (HTRF) assay.
The complete cDNA of human FAK, the N-terminal end of which was labeled with histidine, was cloned into a baculovirus expression vector pFastBac HTc. The protein was expressed and purified to approximately 70% homogeneity.
The kinase activity is determined by incubating the enzyme (6.6 μg/ml) with various concentrations of test compound in a 50 mM Hepes buffer, pH=7.2, containing 10 mM MgCl2, 100 μM Na3VO4 and 15 μM d'ATP for 1 hour at 37° C. The enzyme reaction is stopped by adding Hepes buffer, pH=7.0, containing […], 133 mM EDTA and 0.1% BSA, and the labeling is carried out, over 1 to 2 hours at ambient temperature, by adding to this buffer an anti-Histidine antibody labeled with XL665 and a monoclonal antibody phosphospecific for tyrosine, conjugated to europium cryptate (Eu-K). The characteristics of the two fluorophores are available in G. Mathis et al., Anticancer Research, 1997, 17, pages 3011-3014. The transfer of energy from the excited europium cryptate to the XL665 acceptor is proportional to the degree of autophosphorylation of FAK. The long-lived signal specific for XL-665 is measured in a Packard Discovery plate counter. All the assays are carried out in duplicate and the mean of the two assays is calculated. The inhibition of the FAK autophosphorylation activity with compounds of the invention is expressed as percentage inhibition compared to a control whose activity is measured in the absence of test compound. The [signal at 665 nm/signal at 620 nm] ratio is used for the calculation of the % inhibition.

human KDR enzyme = biological target: T2, human KDR enzyme (Homo sapiens, UniProt P35968); assay: KDR substrate (PLCγ) phosphorylation, scintillation assay; conditions: 10 μM; read-out: KDR % inhib at 10 μM
T2 construct: The cytoplasmic domain of the human KDR enzyme; GST; made in house; host or cells: SF21 insect cells (baculovirus)
T2 sequence (P35968 786-1356 limits assumed): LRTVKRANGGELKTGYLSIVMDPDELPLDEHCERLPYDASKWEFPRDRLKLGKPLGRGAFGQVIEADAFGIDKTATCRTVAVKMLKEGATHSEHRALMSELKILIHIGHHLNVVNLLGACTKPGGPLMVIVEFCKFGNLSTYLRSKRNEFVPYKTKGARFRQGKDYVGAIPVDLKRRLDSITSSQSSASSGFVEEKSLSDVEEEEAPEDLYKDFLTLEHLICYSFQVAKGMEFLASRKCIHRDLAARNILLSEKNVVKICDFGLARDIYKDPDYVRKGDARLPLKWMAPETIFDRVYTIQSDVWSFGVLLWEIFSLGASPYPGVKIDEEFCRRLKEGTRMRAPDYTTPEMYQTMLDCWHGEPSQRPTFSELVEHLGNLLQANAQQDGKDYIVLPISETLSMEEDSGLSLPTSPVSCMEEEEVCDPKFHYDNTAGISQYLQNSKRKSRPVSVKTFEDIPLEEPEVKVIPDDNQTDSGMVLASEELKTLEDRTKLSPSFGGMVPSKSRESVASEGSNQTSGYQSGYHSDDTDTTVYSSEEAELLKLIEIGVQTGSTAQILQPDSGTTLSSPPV
Description: The inhibitory effect of the compounds is determined in an assay of substrate phosphorylation by the KDR enzyme in vitro using a scintillation technique (96-well plate, NEN).
The cytoplasmic domain of the human KDR enzyme was cloned in the form of a GST fusion into the baculovirus expression vector pFastBac. The protein was expressed in SF21 cells and purified to approximately 60% homogeneity.
The KDR kinase activity is measured in 20 mM MOPS, 10 mM MgCl2, 10 mM MnCl2, 1 mM DTT, 2.5 mM EGTA, 10 mM β-glycerophosphate, pH=7.2, in the presence of 10 mM MgCl2, 100 μM Na3VO4, 1 mM NaF. 10 μl of the compound are added to 70 μl of kinase buffer containing 100 ng of KDR enzyme at 4° C. The reaction is triggered by adding 20 μl of solution containing 2 μg of substrate (SH2-SH3 fragment of PLCγ expressed in the form of a GST fusion protein), 2 μCi γ^33P[ATP] and 2 μM cold ATP. After incubation for 1 hour at 37° C., the reaction is stopped by adding 1 volume (100 μl) of 200 mM EDTA. The incubation buffer is removed and the wells are washed three times with 300 μl of PBS. The radioactivity is measured in each well using Top Count NXT radioactivity counter (Packard).
The background noise is determined by measuring the radioactivity in four different wells containing the radioactive ATP and the substrate alone.
A control for total activity is measured in four different wells containing all the reagents (γ^33P-[ATP], KDR and PLCγ substrate) but in the absence of compound.
The inhibition of the KDR activity with the compound of the invention is expressed as percentage inhibition of the control activity determined in the absence of compound.
The compound SU5614 (Calbiochem) (1 μM) is included in each plate as an inhibition control.

Aurora2 kinase = biological target: T3, Aurora2 kinase (Homo sapiens, UniProt O14965); assay: Aurora2 kinase radioactivity scintillation assay using nickel chelate (NuMA substrate); conditions: 10 μM; read-out: Aurora2 % inhib at 10 μM
T3 construct: A complete recombinant Aurora2 enzyme; His tag (N); made in house; host or cells: E. coli
T3 sequence (O14965 1-403): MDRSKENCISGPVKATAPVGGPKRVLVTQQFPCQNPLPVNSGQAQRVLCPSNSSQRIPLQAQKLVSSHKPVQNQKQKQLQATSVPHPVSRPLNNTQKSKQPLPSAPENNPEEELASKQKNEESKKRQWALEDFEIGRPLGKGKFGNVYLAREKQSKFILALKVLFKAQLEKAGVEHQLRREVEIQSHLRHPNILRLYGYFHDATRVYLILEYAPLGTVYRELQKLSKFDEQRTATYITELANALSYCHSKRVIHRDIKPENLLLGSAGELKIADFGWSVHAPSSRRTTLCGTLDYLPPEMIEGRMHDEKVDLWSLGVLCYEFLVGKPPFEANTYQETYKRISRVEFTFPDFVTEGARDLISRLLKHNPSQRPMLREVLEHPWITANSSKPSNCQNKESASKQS
Description: The inhibitory effect of compounds with respect to the Aurora2 kinase is determined with a radioactivity scintillation assay using nickel chelate.
A complete recombinant Aurora2 enzyme, the N-terminal end of which was labeled with histidine, was expressed in E. coli and purified to a quality close to homogeneity.
The C-terminal fragment (Q1687-H2101) of a NuMA (Nuclear protein that associates with the Mitotic Apparatus) expressed in E. coli, and the N-terminal end of which was labeled with histidine, was purified by nickel chelate chromatography and used as substrate in the Aurora2 kinase assay. In order to determine the kinase activity, the NuMA substrate is equilibrated by chromatography on a Pharmacia PD10 column, in a buffer (50 mM Tris HCl, pH7.5, 50 mM NaCl, 10 mM MgCl2) to which 10% (v/v) of glycerol and 0.05% (w/v) of NP40 have been added.
The kinase acivitity of Aurora2 is measured by scintillation with nickel chelate (New England Nuclear, model SMP107). Each well contains 100 μl of the following solution: 0.02 μM of Aurora2; 0.5 μM of NuMA substrate; 1 μM of ATP to which 0.5 μCi of ATP-[^33P] has been added. The solutions are incubated for 30 minutes at 37° C. The assay buffer is then removed and the wells are rinsed twice with 300 μl of kinase buffer. The radioactivity is measured in each well using a Packard Model Top Count NXT device.
The background noise is deduced from the measurement of radioactivity by measuring, in duplicate, in wells containing the radioactive ATP alone containing buffered kinase treated in the same way as the other samples.
The activity of the control is determined by measuring, in duplicate, the radioactivity in the complete assay mixture (ATP, Aurora2 and the NuMA substrate) in the absence of test compound.
The inhibition of the Aurora2 with a compound of the invention is expressed as percentage inhibition of the control activity in the absence of test compound. Staurosporine is added to each plate as an inhibition control.

[1] = biological target: T4, human IGF1R cytoplasmic domain (Homo sapiens, UniProt P08069); assay: IGF1R autophosphorylation inhibition, time resolved fluorescence (HTRF) assay; conditions: 10 μM; read-out: IGF1R % inhib at 10 μM
T4 construct: The human IGF1R cytoplasmic domain was cloned; made in house; host or cells: SF21 insect cells (baculovirus)
T4 sequence (P08069 960-1367 limits assumed): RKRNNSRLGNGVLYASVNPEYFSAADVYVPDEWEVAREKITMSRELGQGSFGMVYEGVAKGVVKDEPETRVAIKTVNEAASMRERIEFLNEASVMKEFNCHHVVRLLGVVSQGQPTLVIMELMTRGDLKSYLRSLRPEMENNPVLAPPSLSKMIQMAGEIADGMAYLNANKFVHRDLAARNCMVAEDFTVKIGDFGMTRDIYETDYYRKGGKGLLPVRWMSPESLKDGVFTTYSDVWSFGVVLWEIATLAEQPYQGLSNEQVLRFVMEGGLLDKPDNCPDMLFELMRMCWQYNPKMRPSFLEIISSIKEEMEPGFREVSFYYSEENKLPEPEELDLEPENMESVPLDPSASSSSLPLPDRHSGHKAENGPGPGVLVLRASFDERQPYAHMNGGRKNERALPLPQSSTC
Description: The inhibitory activity of the compounds on IGF1R is determined by measuring the inhibition of the autophosphorylation of the enzyme using a time resolved fluorescence (HTRF) assay.
The human IGF1R cytoplasmic domain was cloned, as a fusion with glutathione S-transferase (GST), into the baculovirus expression vector pFastBac-GST. The protein was expressed in SF21 cells and purified to approximately 80% homogeneity.
The kinase activity was determined by incubating the enzyme with various concentrations of test compound in a 50 mM Hepes buffer, pH 7.5, containing 5 mM MnCl2, 50 mM NaCl, 3% glycerol, 0.025% Tween […] of ATP. The enzyme reaction is stopped by adding 100 mM Hepes buffer, pH 7.0, containing 0.4 M KF, 133 mM EDTA and 0.1% BSA containing an anti-GST antibody labeled with XL665 and an antiphosphotyrosine antibody conjugated to europium cryptate (Eu-K). The characteristics of the two fluorophores, XL-665 and Eu-K, are available in G. Mathis et al., Anticancer Research, 1997, 17, pages 3011-3014. The transfer of energy from the excited europium cryptate to the acceptor XL665 is proportional to the degree of autophosphorylation of IGF1R. The long-lived signal specific for XL-665 is measured in a Victor analyzer plate counter (Perkin-elmer). The inhibition of the IGF1R autophosphorylation activity with compounds of the invention is expressed as percentage inhibition compared to a control whose activity is measured in the absence of test compound.

T1 sequence (Q05397 whole entry): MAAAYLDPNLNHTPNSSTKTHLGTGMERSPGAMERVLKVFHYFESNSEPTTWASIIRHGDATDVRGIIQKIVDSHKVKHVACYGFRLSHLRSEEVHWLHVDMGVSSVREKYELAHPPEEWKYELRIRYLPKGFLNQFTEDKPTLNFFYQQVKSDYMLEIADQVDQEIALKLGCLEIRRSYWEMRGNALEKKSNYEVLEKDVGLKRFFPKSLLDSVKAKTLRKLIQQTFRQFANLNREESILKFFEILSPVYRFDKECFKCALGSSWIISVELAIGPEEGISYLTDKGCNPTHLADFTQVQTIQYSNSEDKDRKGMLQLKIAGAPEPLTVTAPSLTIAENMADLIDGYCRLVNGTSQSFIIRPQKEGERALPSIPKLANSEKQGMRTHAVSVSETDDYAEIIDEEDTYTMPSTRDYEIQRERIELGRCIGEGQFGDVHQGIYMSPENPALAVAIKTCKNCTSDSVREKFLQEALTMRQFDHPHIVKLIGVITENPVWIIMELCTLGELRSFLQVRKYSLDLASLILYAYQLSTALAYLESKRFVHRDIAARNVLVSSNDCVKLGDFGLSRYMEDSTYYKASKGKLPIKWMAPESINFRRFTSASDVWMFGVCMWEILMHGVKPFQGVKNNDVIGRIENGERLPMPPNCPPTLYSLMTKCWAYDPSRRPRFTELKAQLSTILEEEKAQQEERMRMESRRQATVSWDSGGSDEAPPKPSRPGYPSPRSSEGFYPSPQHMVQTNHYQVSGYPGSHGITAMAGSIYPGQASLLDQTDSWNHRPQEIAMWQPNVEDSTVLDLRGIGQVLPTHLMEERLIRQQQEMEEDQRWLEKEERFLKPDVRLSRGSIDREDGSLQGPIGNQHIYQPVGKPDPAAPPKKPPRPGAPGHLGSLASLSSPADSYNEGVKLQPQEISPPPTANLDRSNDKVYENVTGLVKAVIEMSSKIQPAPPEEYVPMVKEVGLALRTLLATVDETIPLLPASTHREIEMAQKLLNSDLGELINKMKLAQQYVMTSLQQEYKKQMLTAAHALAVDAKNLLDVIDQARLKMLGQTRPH

| inhibition at 10 µM (human FAK) [%] | inhibition at 10 µM (human KDR enzyme) [%] | inhibition at 10 µM (Aurora2 kinase) [%] | inhibition at 10 µM [1] [%] | Structure (SMILES) |
| --- | --- | --- | --- | --- |
| 43 | 41 | 73 | 0 | CC(C)(C)c1ccc(-c2n[nH]c3ccc(NS(=O)(=O)c4ccccc4S(C)(=O)=O)cc23)cc1 [Example 197, N-[3-(4-tert-Butylphenyl)-1H-indazol-5-yl]-2-methanesulfonyl-benzenesulfonamide] |
| 95 | 99 | 100 | 99 | O=S(=O)(Nc1ccc2[nH]nc(-c3cc4ccccc4[nH]3)c2c1)c1cccc(F)c1 [Example 85, 3-Fluoro-N-[3-(1H-indol-2-yl)-1H-indazol-5-yl]benzenesulfonamide] |
| 22 | 66 | 52 | 13 | CS(=O)(=O)c1ccccc1S(=O)(=O)Nc1ccc2[nH]nc(-c3cccc4c3oc3ccccc34)c2c1 [Example 169, N-(3-(Dibenzofuran-4-yl)-1H-indazol-5-yl)-2-methanesulfonyl-benzenesulfonamide] |
| 93 | 64 | 94 | 73 | CS(=O)(=O)c1ccccc1S(=O)(=O)Nc1ccc2[nH]nc(-c3cccc(O)c3)c2c1 [Example 200, N-[3-(3-Hydroxyphenyl)-1H-indazol-5-yl]-2-methanesulfonyl-benzenesulfonamide] |

The next lines start with the compound.

| Structure (SMILES) | inhibition at 10 µM (human FAK) [%] | inhibition at 10 µM (human KDR enzyme) [%] | inhibition at 10 µM (Aurora2 kinase) [%] | inhibition at 10 µM [1] [%] |
| --- | --- | --- | --- | --- |
| CS(=O)(=O)c1ccccc1S(=O)(=O)Nc1ccc2[nH]nc(-c3ccc(Cl)c(Cl)c3)c2c1 [Example 205, N-[3-(3,4-Dichlorophenyl)-1H-indazol-5-yl]-2-methanesulfonyl-benzenesulfonamide] | 90 | 42 | 86 | 66 |
| CS(=O)(=O)c1ccccc1S(=O)(=O)Nc1ccc2[nH]nc(-c3ccc(C#N)cc3)c2c1 [Example 216, N-[3-(4-Cyanophenyl)-1H-indazol-5-yl]-2-methanesulfonyl-benzenesulfonamide] | 96 | 32 | 91 | 86 |
| O=S(=O)(Nc1ccc2[nH]nc(-c3ccc(O)cc3)c2c1)c1ccccc1 [Example 34, N-[3-(4-Hydroxyphenyl)-1H-indazol-5-yl]benzenesulfonamide] | 87 | 96 | 100 | 89 |
| CS(=O)(=O)c1ccccc1S(=O)(=O)Nc1ccc2[nH]nc(-c3ccc(Cl)s3)c2c1 [Example 181, N-[3-(5-Chlorothiophen-2-yl)-1H-indazol-5-yl]-2-methanesulfonyl-benzenesulfonamide] | 83 | 49 | 94 | 55 |
| CC(C)c1cc(C(C)C)c(S(=O)(=O)Nc2ccc3[nH]nc(-c4ccccc4)c3c2)c(C(C)C)c1 [Example 114, 2,4,6-Triisopropyl-N-(3-phenyl-1H-indazol-5-yl)-benzenesulfonamide] | 48 | 90 | 98 | 50 |
| CC1(C)[C@H]2CCC1(CS(=O)(=O)Nc1ccc3[nH]nc(-c4ccccc4)c3c1)C(=O)C2 [Example 148, C-(7,7-Dimethyl-2-oxo-bicyclo[2.2.1]hept-1-yl)-N-(3-phenyl-1H-indazol-5-yl)-methanesulfonamide] | 36 | 61 | 77 | 30 |
| CS(=O)(=O)c1ccccc1S(=O)(=O)Nc1ccc2[nH]nc(-c3cc(F)cc(F)c3)c2c1 [Example 102, N-[3-(3,5-difluorophenyl)-1H-indazol-5-yl]-2-methylsulfonylbenzenesulfonamide] | 90 | 77 | 96 | 74 |
| CC(=O)Nc1n[nH]c2ccc(NS(=O)(=O)c3cc(F)cc(F)c3)cc12 [Example 44, N-[5-(3,5-Difluorobenzenesulfonylamino)-1H-indazol-3-yl]acetamide] | 95 | 37 |  | 82 |

From patent US6858638B2, “Substituted indazoles, compositions containing them, method of production and use” (Aventis Pharma S.A., priority 2002, dated 2005)
